The results in this text go back to patent publication US10188674B2, “Parenteral formulations for administering macrolide antibiotics” (Cempra Pharmaceuticals, Inc., priority 2012, dated 2019).

Structures are written as SMILES.

A short description of data set [1]: Acid dissociation constants of SOL. The format is physicochemical. The source says:
[drawing 4] and pharmaceutically acceptable salts, hydrates, solvates, esters, and prodrugs thereof. The following acid dissociation constants are observed for SOL, pKa1=9.44; pKa2=3.5. Such dissociation constants are illustrative of compounds that may be characterized as having low basicity.

The nature of data set [2]: Dynamic Precipitation Model (absorbance at 500 nm on infusion into blood surrogate). Format: physicochemical. How it is done: Dynamic Precipitation Model. The dynamic precipitation apparatus is shown in FIG. 1, and is also described in Johnson et al., (2003). The apparatus includes a predetermined distance, illustratively a 15 cm distance, between the tip of the injection needle and the UV flow cell, and three main components to simulate blood flow and different infusion rates of drug. Illustratively, a Cole-Palmer-Masterflex® 7520-00 peristaltic pump is used to direct the flow of blood surrogate at 5 mL/min. Illustratively, a Harvard Apparatus Precision Syringe Pump 22 is used to infuse drug formulations into the system at various injection rates. Illustratively, a Cary UV-50 Bio Spectrophotometer with a 1.00 cm flow cell is used to monitor absorbance as a measure of precipitation in the formulation-blood surrogate system. Each sample is prepared by dissolving test compound and formulation agents into water or vehicle, and adjusting the pH with either 1 M HCl or 1 M NaOH, as appropriate to the indicated final concentration of test compound. Lactic, citric, and tartaric acid formulation agent stock solutions are made by dissolving the predetermined weight of solid or liquid into water and adjusting pH with either 1 M HCl or 1 M NaOH. The blood surrogate (Isotonic Sorensen's Phosphate Buffer, 0.067 M, pH 7.4) is pumped from a reservoir through Tygon® tubing (R-6306) fitted with 2 IV-set Y-injection sites that pass into the flow cell and terminate in a waste container. […]-35 flow meter, along with a timer and graduated cylinder, is used to measure the rate of surrogate blood flow through the system. Illustratively, flow is 5 mL/min. The test compound formulations are infused at different rates through the downstream second Y-injection site into the flow of the blood surrogate entering into the flow cell. A 0.001 M HCl solution is injected into the first Y-injection site following each infusion of test compound to flush the downstream tubing and flow cell. All injections are performed at 25° C. The spectrophotometer software (Cary UVWin) is set to read a constant absorbance, illustratively 500 nm, versus time. Samples are made with buffer and drug concentrations as described. After the flow rate is confirmed at 5 mL/min, the spectrophotometer is set to record absorbance at 500 nm for 5-10 minutes, and injections are performed at different rates as specified. To prevent any residual precipitation build up in the tubing or flow cell, a flush of pH 3 HCl is performed between injections. The flow cell is optionally visually inspected between runs for the presence of precipitation. Static precipitation measurements are also optionally performed by a two-fold serial dilution of test compound formulation in blood surrogate using a laser pointer as a Tyndall beam to determine the presence of particulates. […] An absorbance at or above 0.05 is considered to be the threshold level for assessing precipitation having phlebitic potential.

Data set [3] has as its system New Zealand White female rabbits. Nature of the data set: Tolerance Evaluation, Multiple-Dose Rabbit Ear Vein Model Study. The format is in vivo. How it is done:
Tolerance Evaluation of Following Intravenous Infusion in the Rabbit. Multiple-Dose Rabbit Ear Vein Model Study. New Zealand White female rabbits weighing 2.5-3.2 kg are evaluated for pain, ear inflammation and phlebitis after receiving an intravenous infusion of test compound once daily for 5 days.
SOL is dissolved in a 0.5% lactic acid formulation at pH 4, and then into 0.45% saline at concentrations of 2 mg/mL or 3 mg/mL.
Four rabbits are dosed; one vehicle-dosed and one each at 2 mg/mL (rate of 3 mL/min), 3 mg/mL (rate of 3 mL/min) and 3 mg/mL (rate of 4 mL/min). All rabbits receive a dose volume of 5 mL and are dosed via intravenous infusion in the right marginal ear vein once daily for 5 days. Animals are observed during and post (30 minutes) each infusion and reactions recorded.

In data set [4] the test system is dog. The data set can be described thus: 28 day toxicology study, intravenous infusion, dog. The format is in vivo. The following applies: 28 days, tartrate-buffered solution of 1 mg/mL in 3% mannitol infused at approximately 1 mL/min. The text has this: (§1) An intravenous infusion solution of SOL and related compounds suitable for treatment in a disease such as moderately severe to severe community acquired bacterial pneumonia (CABP) is needed. […] However, without being bound by theory, it is believed herein that infusion at higher concentrations and/or at higher rates of infusion, which are highly desirable in the clinical setting, may not be practical with current formulations due to the substantially lower solubility observed with SOL and related compounds compared to other macrolide, enolide, and ketolide compounds.

The subject of data set [5] is monkey. Nature of the data set: 28 day toxicology study, intravenous infusion, monkey. Format: in vivo. The following applies: 28 days, tartrate-buffered solution of 1 mg/mL in 3% mannitol infused at approximately 1 mL/min.
From the text: as §1

Regarding `CC[C@H]1OC(=O)[C@@](C)(F)C(=O)[C@H](C)[C@@H](O[C@@H]2O[C@H](C)C[C@H](N(C)C)[C@H]2O)[C@](C)(OC)C[C@@H](C)C(=O)[C@H](C)[C@H]2N(CCCCn3cc(-c4cccc(N)c4)nn3)C(=O)O[C@]12C` [SOL, solithromycin], the pKa1 in data set [1] was 9.44. In addition, the pKa2 in data set [1] is 3.5. The Absorbance result in data set [2] (1 mg/mL in 0.45% Saline, 0.3 mL/min) is recorded as “BQL”; in data set [2] (1 mg/mL in 0.45% Saline, 1.0 mL/min) it was “BQL”; in data set [2] (1 mg/mL in 0.45% Saline, 3.0 mL/min), “BQL”; in data set [2] (1 mg/mL in 0.45% Saline, 6.0 mL/min) it was “about 0.1”; in data set [2] (1 mg/mL in 5% Mannitol, 0.3 mL/min) it was “BQL”; in data set [2] (1 mg/mL in 5% Mannitol, 1.0 mL/min), “BQL”. For the same compound, the Absorbance in data set [2] (1 mg/mL in 5% Mannitol, 3.0 mL/min) is listed as 0.01; in data set [2] (1 mg/mL in 5% Mannitol, 6.0 mL/min), “about 0.05”; in data set [2] (2 mg/mL in 0.45% Saline, 0.3 mL/min), “BQL”; in data set [2] (2 mg/mL in 0.45% Saline, 1.0 mL/min), “BQL”; in data set [2] (2 mg/mL in 0.45% Saline, 3.0 mL/min), “about 0.02”; in data set [2] (2 mg/mL in 0.45% Saline, 6.0 mL/min) it was “about 0.1”. For the same compound, the Absorbance entry in data set [2] (2 mg/mL in 5% Mannitol, 0.3 mL/min) is given as “BQL”; in data set [2] (2 mg/mL in 5% Mannitol, 1.0 mL/min), “about 0.03”; in data set [2] (2 mg/mL in 5% Mannitol, 3.0 mL/min), “about 0.06”; in data set [2] (2 mg/mL in 5% Mannitol, 6.0 mL/min), “about 0.1”; in data set [2] (3 mg/mL in 0.45% Saline, 0.3 mL/min) it was “BQL”; in data set [2] (3 mg/mL in 0.45% Saline, 1.0 mL/min), “about 0.02”. For the same compound, the Absorbance entry is “about 0.1” in data set [2] (3 mg/mL in 0.45% Saline, 3.0 mL/min); “about 0.3” in data set [2] (3 mg/mL in 0.45% Saline, 6.0 mL/min); “BQL” in data set [2] (3 mg/mL in 5% Mannitol, 0.3 mL/min); “about 0.1” in data set [2] (3 mg/mL in 5% Mannitol, 1.0 mL/min); “about 0.4” in data set [2] (3 mg/mL in 5% Mannitol, 3.0 mL/min); “about 0.6” in data set [2] (3 mg/mL in 5% Mannitol, 6.0 mL/min). Besides, in data set [2] (3 mg/mL, 3 mL/min, pH 4.0, 0.9% NaCl), the Absorbance entry is given as “− ((−) = ≥0.05)”. The “injection rates at which precipitation is noted” value is given as “greater than or equal to 3.0 mL/min” in data set [2] (1 mg/mL in 5% Mannitol); “greater than or equal to 1.0 mL/min” in data set [2] (2 mg/mL in 5% Mannitol); “greater than or equal to 1.0 mL/min” in data set [2] (3 mg/mL in 0.45% Saline); “greater than or equal to 1.0 mL/min” in data set [2] (3 mg/mL in 5% Mannitol); “greater than 1.0 mL/min” in data set [2] (2 or 1 mg/mL in 0.45% saline, 1.0 mL/min is borderline). Besides, the precipitation entry in data set [2] (2 mg/mL in 10 mM Tartaric Acid in 5% Mannitol, pH 4.2, 3 mL/min, infusion 1 minute) is recorded as “minimal precipitation”; in data set [2] (2 mg/mL in 20 mM Tartaric Acid in 5% Mannitol, pH 4.2, 3 mL/min, infusion 1 minute), “minimal precipitation”; in data set [2] (2 mg/mL in 38.5 mM Tartaric Acid and 0.5% Monothioglycerol in 3% Mannitol, pH 4.0, 2, 3 or 4 mL/min, infusion 5 minutes), “minimal precipitation”; in data set [2] (2 mg/mL in 38.5 mM Tartaric Acid in 5% Mannitol, pH 4.0, 2, 3 or 4 mL/min, infusion 5 minutes), “minimal precipitation”. In addition, the “effect of tartaric acid on observed precipitation” value in data set [2] (3 mg/mL in 5 mM Tartaric Acid in 5% Mannitol pH 4.2 vs SOL 2 mg/mL in 5% Mannitol, 2 or 3 mL/min, infusion 2 minutes) is “substantially decreases the amount of observed precipitation”. Besides, in data set [2] (0.5, 1 and 5 mM citrate buffer (pH 4) in 0.45% saline, 2 mg/mL and 3 mg/mL), the “effect of citrate buffer on precipitation” value was “does not significantly reduce precipitation”. The “effect of tartrate buffer on precipitation” value in data set [2] (10 or 25 mM tartrate buffer (pH 4) in 0.45% saline, 2 mg/mL and 3 mg/mL) is “does not significantly reduce precipitation”. Besides, the “observations, Days 4 and 5” value in data set [3] (2 mg/mL, rate of 3 mL/min, also seen in the vehicle-treated rabbit) is recorded as “mechanical irritation around the needle stick, without reaction distal to the needle”. The further observation result in data set [3] (3 mg/mL, rate of 4 mL/min) is “Head and ear twitching”. Further, the “observations, Day 3 until day 5” value in data set [3] (3 mg/mL, rates of 3 or 4 mL/min) was “vessel dilation and irritation around and past the needle stick”. The “adverse effects, Days 1 and 2” value in data set [3] (0.5% lactic acid formulation pH 4 in 0.45% saline, 5 mL once daily for 5 days, any of the rabbits) is given as “No adverse effects”. The “pain or other adverse events” value in data set [4] and in data set [5] was “without evidence of pain or other adverse events” each time.

Turning to `CC[C@H]1OC(=O)[C@H](C)[C@@H](O[C@H]2C[C@@](C)(OC)[C@@H](O)[C@H](C)O2)[C@H](C)[C@@H](O[C@@H]2O[C@H](C)C[C@H](N(C)C)[C@H]2O)[C@](C)(O)C[C@@H](C)C(=O)[C@H](C)[C@@H](O)[C@]1(C)O` [erythromycin-lactobionate, erythromycin lactobionate, reference compound], the Absorbance result in data set [2] (2 mg/mL, 3 mL/min, 0.9% NaCl) is given as “++++ ((++++) = BQL of <0.003)”.
